In ChEMBL document CHEMBL1130630, “Structure-based design of peptidomimetic ligands of the Grb2-SH2 domain” (Bioorg Med Chem Lett, 1998):
Square brackets hold non-standard residues; d marks the D form. Peptide text beside a SMILES is read from it. pY = N[C@@H](Cc1ccc(OP(=O)(O)O)cc1)C(=O)O

Target: Growth factor receptor-bound protein 2 (Homo sapiens, UniProt P62993)
Assay: Inhibition of Growth factor receptor bound protein 2 SH2 domain binding to phospho-EGFR by ELISA

Chain of Growth factor receptor-bound protein 2 (P62993 whole entry, the tested form may be a part): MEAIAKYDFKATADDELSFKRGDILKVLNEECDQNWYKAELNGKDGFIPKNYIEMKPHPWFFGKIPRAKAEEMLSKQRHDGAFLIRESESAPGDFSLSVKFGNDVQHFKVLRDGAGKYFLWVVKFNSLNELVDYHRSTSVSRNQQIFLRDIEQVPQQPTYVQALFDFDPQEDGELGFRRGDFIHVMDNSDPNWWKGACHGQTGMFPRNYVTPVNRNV

Row | Compound | IC50
1 | CC(=O)N[C@@H](Cc1ccc(OP(=O)(O)O)cc1)C(=O)NCc1cccc(NC(N)=O)c1 | 48.7 µM
2 | CC(=O)N[C@@H](Cc1ccc(OP(=O)(O)O)cc1)C(=O)N[C@@H](CCC(N)=O)c1cccc(NC(N)=O)c1 | 6.5 µM
3 | CC(=O)N[C@@H](Cc1ccc(OP(=O)(O)O)cc1)C(=O)N[C@H](c1cccc(NC(N)=O)c1)C(C)C | 6.19 µM
4 | CC(=O)N[C@@H](Cc1ccc(OP(=O)(O)O)cc1)C(=O)N[C@H](C(=O)N[C@@H](CC(N)=O)C(N)=O)C(C)C (Ac-[pY]-Val-Asn-NH2) | 4.32 µM
5 | CC(=O)N[C@@H](Cc1ccc(OP(=O)(O)O)cc1)C(=O)NCC(=O)N[C@@H](CC(N)=O)C(N)=O (Ac-[pY]-Gly-Asn-NH2) | 67 µM
6 | CC(=O)N[C@@H](Cc1ccc(OP(=O)(O)O)cc1)C(=O)N[C@@H](CCC(N)=O)C(=O)N[C@@H](CC(N)=O)C(N)=O (Ac-[pY]-Gln-Asn-NH2) | 5.44 µM
